# Patent publication US12187728B2 (Raze Therapeutics, Inc., priority 2015, dated 2025)
# Target: T1, Human MTHFD2 (Homo sapiens, UniProt P13995)
# T1 construct: residues 36-350 in Uniport ID P13995; His6 (N); made in house; host or cells: E. coli
# T1 sequence (P13995 36-350): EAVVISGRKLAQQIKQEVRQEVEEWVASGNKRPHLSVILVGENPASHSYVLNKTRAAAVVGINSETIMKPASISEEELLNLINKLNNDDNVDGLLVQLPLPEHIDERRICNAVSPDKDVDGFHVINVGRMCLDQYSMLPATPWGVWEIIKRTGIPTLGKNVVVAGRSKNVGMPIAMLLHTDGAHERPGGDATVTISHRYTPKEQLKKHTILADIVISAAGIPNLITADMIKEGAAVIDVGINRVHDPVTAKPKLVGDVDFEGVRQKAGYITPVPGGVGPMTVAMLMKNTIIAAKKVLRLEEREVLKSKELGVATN
# Test: MTHFD2 Activity Assay (dehydrogenase activity, diaphorase/resazurin coupled fluorescence)
# Type: biochemical
# Conditions: inhibitory activity (IC50 and/or binding constant); 0.2 nM MTHFD2, 11 concentrations
# Procedure, shortened: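 Resorufin fluorescence (ex 525, em 598 nm) reports NADH formed by the dehydrogenase via diaphorase coupling. Enzyme (0.2 nM, residues 36-350, N-His6) sat with compound 15 min before 70 μM CH2-THF and 1 mM NAD+ started a 30 min reaction. IC50s come from 4-parameter fits over 11 concentrations.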
row,IC50 [nM],Structure (SMILES)
1,10 to 1000,"Cn1c(C(N)CO)nc2c1c(=O)n(Cc1cc3c(Cl)cccc3[nH]1)c(=O)n2C (stereo not shown) [Example 458, 8-(1-amino-2-hydroxy-ethyl)-1-[(4-chloro-1H-indol-2-yl)methyl]-3,7-dimethyl-purine-2,6-dione]"
2,10 to 1000,"Cn1c(Nc2cccc([C@H]3C[C@H]3C(=O)O)n2)nc2c1c(=O)n(Cc1ccc(Cl)c(Cl)c1)c(=O)n2C (racemic) [Example 357, (±)-cis-2-(6-((1-(3,4-dichlorobenzyl)-3,7-dimethyl-2,6-dioxo-2,3,6,7-tetrahydro-1H-purin-8-yl)amino)pyridin-2-yl)cyclopropanecarboxylic acid]"
3,10 to 1000,"Cn1c(Nc2ccnc([C@H]3C[C@@H]3C(=O)O)c2)nc2c1c(=O)n(Cc1cc3c(Cl)cccc3[nH]1)c(=O)n2C (single isomer, unassigned) [Example 363, (1S,2S)-2-(4-((1-((4-chloro-1H-indol-2-yl)methyl)-3,7-dimethyl-2,6-dioxo-2,3,6,7-tetrahydro-1H-purin-8-yl)amino)pyridin-2-yl)cyclopropanecarboxylic acid or (1R,2R)-2-(4-((1-((4-chloro-1H-indol-2-yl)methyl)-3,7-dimethyl-2,6-dioxo-2,3,6,7-tetrahydro-1H-purin-8-yl)amino)pyridin-2-yl)cyclopropanecarboxylic acid]"
4,10 to 1000,"Cn1c(C(N)C2CCOCC2)nc2c1c(=O)n(Cc1[nH]c3cccc(Cl)c3c1Cl)c(=O)n2C (stereo not shown) [Example 455, 8-[amino(tetrahydropyran-4-yl)methyl]-1-[(3,4-dichloro-1H-indol-2-yl)methyl]-3,7-dimethyl-purine-2,6-dione]"
5,10 to 1000,"Cn1c(NCC(F)(F)F)nc2c1c(=O)n(Cc1ccc(Cl)c(Cl)c1)c(=O)n2C [Example 278, 1-[(3,4-dichlorophenyl)methyl]-3,7-dimethyl-8-(2,2,2-trifluoroethylamino)purine-2,6-dione]"
6,10 to 1000,"CC(C)C(N)c1nc2c(c(=O)n(Cc3cc4c(Cl)cccc4[nH]3)c(=O)n2C)n1C (stereo not shown) [Example 437, 8-(1-amino-2-methyl-propyl)-1-[(4-chloro-1H-indol-2-yl)methyl]-3,7-dimethyl-purine-2,6-dione]"
7,10 to 1000,"CCOC(=O)[C@H]1C[C@@H](Nc2nc3c(c(=O)n(Cc4ccc(Cl)c(Cl)c4)c(=O)n3C)n2C)C1 [Example 258, (±)-(cis)-ethyl 3-(1-(3,4-dichlorobenzyl)-3,7-dimethyl-2,6-dioxo-2,3,6,7-tetrahydro-1H-purin-8-ylamino)cyclobutanecarboxylate]"
8,1000 to 5000,"Cn1c(-n2c(N)nc3ccccc32)nc2c1c(=O)n(Cc1cc3c(Cl)cccc3[nH]1)c(=O)n2C [Example 353, 8-(2-amino-1H-benzo[d]imidazol-1-yl)-1-((4-chloro-1H-indol-2-yl)methyl)-3,7-dimethyl-1H-purine-2,6(3H,7H)-dione]"
9,5000 to 10000,"Cn1c(Nc2ccnc([C@@H]3C[C@H]3CO)c2)nc2c1c(=O)n(Cc1ccc(Cl)c(Cl)c1)c(=O)n2C (single isomer, unassigned) [Example 338, 1-(3,4-dichlorobenzyl)-8-((2((1R,2R)-2-(hydroxymethyl)cyclopropyl)pyridin-4-yl)amino)-3,7-dimethyl-1H-purine-2,6(3H,7H)-dione or 1-(3,4-dichlorobenzyl)-8-((2-((1S,2S)-2-(hydroxymethyl)cyclopropyl)pyridin-4-yl)amino)-3,7-dimethyl-1H-purine-2,6(3H,7H)-dione]"
10,10 to 1000,"Cn1c(Nc2ccncc2)nc2c1c(=O)n(Cc1cc3cccc(Cl)c3[nH]1)c(=O)n2C [Example 373, 1-[(7-chloro-1H-indol-2-yl)methyl]-3,7-dimethyl-8-(4-pyridylamino)purine-2,6-dione]"

# Second part, the compound before the results:
row,Structure (SMILES),IC50 [nM]
1,"Cn1cnc2c1c(=O)n(Cc1cc3ccccc3[nH]1)c(=O)n2C [Example 234, 1-((1H-indol-2-yl)methyl)-3,7-dimethyl-1H-purine-2,6(3H,7H)-dione]",1000 to 5000
2,"Cn1c(N[C@H]2CCC(=O)NC2)nc2c1c(=O)n(Cc1cc3ccccc3[nH]1)c(=O)n2C (single isomer, unassigned) [Example 228, (S)-1-((1H-indol-2-yl)methyl)-3,7-dimethyl-8-(6-oxopiperidin-3-ylamino)-1H-purine-2,6(3H,7H)-dione or (R)-1-((1H-indol-2-yl)methyl)-3,7-dimethyl-8-(6-oxopiperidin-3-ylamino)-1H-purine-2,6(3H,7H)-dione]",1000 to 5000
3,"C[C@@H](CCO)Nc1nc2c(c(=O)n(Cc3ccc(Cl)cc3)c(=O)n2C)n1C [Example 31, 1-[(4-chlorophenyl)methyl]-8-{[(2S)-4-hydroxybutan-2-yl]amino}-3,7-dimethyl-2,3,6,7-tetrahydro-1H-purine-2,6-dione]",1000 to 5000
4,"C[C@@H](O)CNc1nc2c(c(=O)n(Cc3ccc(Cl)cc3)c(=O)n2C)n1C [Example 17, 1-[(4-chlorophenyl)methyl]-8-{[(2R)-2-hydroxypropyl]amino}-3,7-dimethyl-2,3,6,7-tetrahydro-1H-purine-2,6-dione]",5000 to 10000
5,"Cn1c(NC2(C(=O)O)CCCC2)nc2c1c(=O)n(Cc1ccc(Cl)c(Cl)c1)c(=O)n2C [Example 148, 1-(1-(3,4-dichlorobenzyl)-3,7-dimethyl-2,6-dioxo-2,3,6,7-tetrahydro-1H-purin-8-ylamino)cyclopentanecarboxylic acid]",10 to 1000
6,"Cn1c(NCc2cccnc2)nc2c1c(=O)n(Cc1ccc(Cl)c(Cl)c1)c(=O)n2C [Example 117, 1-(3,4-dichlorobenzyl)-3,7-dimethyl-8-(pyridin-3-ylmethylamino)-1H-purine-2,6(3H,7H)-dione]",1000 to 5000
7,"Cn1c(NC2CCNC(=O)C2)nc2c1c(=O)n(Cc1ccc(Cl)c(Cl)c1)c(=O)n2C (racemic) [Example 211, (±)-1-(3,4-dichlorobenzyl)-3,7-dimethyl-8-(2-oxopiperidin-4-ylamino)-1H-purine-2,6(3H,7H)-dione]",10 to 1000
8,"Cn1c(NC2CCNC2=O)nc2c1c(=O)n(Cc1ccc(Cl)c(Cl)c1)c(=O)n2C (stereo not shown) [Example 86, 1-[(3,4-dichlorophenyl)methyl]-3,7-dimethyl-8-[(2-oxopyrrolidin-3-yl)amino]-2,3,6,7-tetrahydro-1H-purine-2,6-dione]",10 to 1000
9,"Cc1ccc2[nH]c(Cn3c(=O)c4c(nc(Nc5ncn[nH]5)n4C)n(C)c3=O)cc2c1 [Example 202, 8-(1H-1,2,4-triazol-5-ylamino)-3,7-dimethyl-1-((5-methyl-1H-indol-2-yl)methyl)-1H-purine-2,6(3H,7H)-dione]",1000 to 5000
10,"Cn1c(NCCCO)nc2c1c(=O)n(Cc1ccc(Cl)c(F)c1)c(=O)n2C [Example 23, 1-[(4-chloro-3-fluorophenyl)methyl]-8-[(3-hydroxypropyl)amino]-3,7-dimethyl-2,3,6,7-tetrahydro-1H-purine-2,6-dione]",1000 to 5000
11,"Cc1ccc2[nH]c(Cn3c(=O)c4c(nc(N)n4C)n(C)c3=O)cc2c1 [Example 232, 8-amino-3,7-dimethyl-1-((5-methyl-1H-indol-2-yl)methyl)-1H-purine-2,6(3H,7H)-dione]",> 10000
12,"COc1ccc2[nH]c(Cn3c(=O)c4c(ncn4C)n(C)c3=O)cc2c1 [Example 239, 1-((5-methoxy-1H-indol-2-yl)methyl)-3,7-dimethyl-1H-purine-2,6(3H,7H)-dione]",1000 to 5000
